Measurements reported in the CheMixHub viscosity set.

Test: xn = mol fraction of the nth substance listed

CCc1ccccc1 + CCCO
viscosity [mPa·s], 101.33 kPa
Details	x2 = 0.3	x2 = 0.5	x2 = 0.7	x2 = 0.9
303 K	0.646	0.826	1.01	1.335
313 K	0.561	0.697	0.839	1.084
323 K	0.494	0.598	0.7	0.886

COCCOCCOCCOCCOC + CC(C)O
viscosity [mPa·s], 101 kPa
Details	x1 = 0.0021	x1 = 0.0042	x1 = 0.00994	x1 = 0.014	x1 = 0.0152	x1 = 0.025	x1 = 0.0355	x1 = 0.0719	x1 = 0.0734	x1 = 0.0994
298.15 K	2.074	2.059	2.022	1.999	1.996	1.934	1.941	1.86	1.883	1.83
308.15 K	1.555	1.549	1.53	1.52	1.52	1.512	1.484	1.465	1.489	1.444
318.15 K	1.188	1.185	1.179	1.177	1.18	1.18	1.172	1.163	1.167	1.159

C[NH+](C)CCO.O=C([O-])CCCC(=O)O + O=S1(=O)CCCC1
101 kPa, x1 = 0.27
Details	viscosity [mPa·s]
303.15 K	132.4
313.15 K	81.7
323.15 K	54.1
